In patent US20090023731A1, “SOLUBLE EPOXIDE HYDROLASE INHIBITORS” (Arete Therapeutics, Inc., priority 2007, published 2009):
Each block holds one compound with its values, some of them ahead of it.

Tests used:
[1] = test system: soluble epoxide hydrolase (sEH); test: Fluorescent assay for mouse and human soluble epoxide hydrolase (CMNPC substrate); assay type: biochemical
Protocol: Recombinant mouse sEH (MsEH) and human sEH (HsEH) were produced in a baculovirus expression system as previously reported. […] The expressed proteins were purified from cell lysate by affinity chromatography. […] Protein concentration was quantified using the Pierce BCA assay using bovine serum albumin as the calibrating standard.
The IC50s for each inhibitor were according to the following procedure:
Bis/Tris HCl 25 mM pH 7.0 containing 0.1 mg/mL of BSA (buffer A) CMNPC at 0.25 mM in DMSO.
Mother solution of enzyme in buffer A (Mouse sEH at 6 μg/mL and Human sEH at 5 μg/mL). Inhibitor dissolved in DMSO at the appropriate concentration.
In a black 96 well plate, fill all the wells with 150 μL of buffer A.
Add 2 μL of DMSO in well A2 and A3, and then add 2 μL of inhibitor solution in A1 and A4 through A12.
Add […] of buffer A in row A, then mix several time and transfer […] to row B. Repeat this operation up to row H. The […] removed from row H is discarded.
Add […] of buffer A in column 1 and 2, then add […] of enzyme solution to column 3 to 12.
Incubate the plate for 5 minutes in the plate reader at 30° C.
During incubation prepare the working solution of substrate by mixing 3.68 mL of buffer A (4×0.920 mL) with 266 μL (2×133 μL) of substrate solution).
The velocities are used to analyze and calculate the IC50s.

% Inh ([1]; inhibitor conc. 50 nM): 91%
Compound: O=C(Nc1ccc(OCCCN2CCOCC2)cc1)Nc1ccc(OC(F)(F)F)cc1 [Compound 34, 1-[4-(3-Morpholin-4-yl-propoxy)-phenyl]-3-(4-trifluoromethoxy-phenyl)-urea]

% Inh ([1]; inhibitor conc. 5000 nM): 93%
Compound: O=C(Cc1ccc(OC(F)(F)F)cc1)Nc1ccc(OCCCN2CCOCC2)cc1 [Compound 35, N-[4-(3-Morpholin-4-yl-propoxy)-phenyl]-2-(4-trifluoromethoxy-phenyl)-acetamide]

% Inh ([1]; inhibitor conc. 500 nM): 79%
Compound: O=C(Nc1cccc(OCCCN2CCOCC2)c1)c1ccc(C(F)(F)F)cc1 [Compound 36, N-[3-(3-Morpholin-4-yl-propoxy)-phenyl]-4-trifluoromethyl-benzamide]

% Inh ([1]; inhibitor conc. 50 nM): 99%
melting point: 208 to 210 °C
Compound: O=C(Nc1ccc(C(F)(F)F)cc1)Nc1cccc(OCc2ccccc2)c1 [Compound 37, 1-(3-Benzyloxy-phenyl)-3-(4-trifluoromethyl-phenyl)-urea]

% Inh ([1]; inhibitor conc. 50 nM): 93%
melting point: 187 to 189 °C
Compound: O=C(Nc1ccc(F)cc1)Nc1cccc(OCc2ccccc2)c1 [Compound 38, 1-(3-Benzyloxy-phenyl)-3-(4-fluoro-phenyl)-urea]

% Inh ([1]; inhibitor conc. 50 nM): 90%
melting point: 211 to 213 °C
Compound: O=C(Nc1ccc(Oc2ccccc2)cc1)Nc1ccc(C(F)(F)F)cc1 [Compound 39, 1-(4-Phenoxy-phenyl)-3-(4-trifluoromethyl-phenyl)-urea]

% Inh ([1]; inhibitor conc. 50 nM): 96%
melting point: 178 to 181 °C
Compound: O=C(Nc1ccc(C(F)(F)F)cc1)Nc1cccc(Oc2ccccc2)c1 [Compound 40, 1-(3-Phenoxy-phenyl)-3-(4-trifluoromethyl-phenyl)-urea]

% Inh ([1]; inhibitor conc. 50 nM): 96%
Compound: O=C(Nc1cccc(OCCCN2CCOCC2)c1)NC1CCCCC1 [Compound 41, 1-Cyclohexyl-3-[3-(3-morpholin-4-yl-propoxy)-phenyl]-urea]

% Inh ([1]; inhibitor conc. 5000 nM): 79%
Compound: CC(C)(C)NC(=O)Nc1cccc(OCCCN2CCOCC2)c1 [Compound 42, 1-tert-Butyl-3-[3-(3-morpholin-4-yl-propoxy)-phenyl]-urea]

% Inh ([1]; inhibitor conc. 50 nM): 93%
Compound: O=C(CC12CC3CC(CC(C3)C1)C2)Nc1cccc(OCCCN2CCOCC2)c1 [Compound 43, 2-Adamantan-1-yl-N-[3-(3-morpholin-4-yl-propoxy)-phenyl]-acetamide]

% Inh ([1]; inhibitor conc. 5000 nM): 70%
Compound: CC(C)(C)CC(=O)Nc1cccc(OCCCN2CCOCC2)c1 [Compound 44, 3,3-Dimethyl-N-[3-(3-morpholin-4-yl-propoxy)-phenyl]-butyramide]

% Inh ([1]; inhibitor conc. 50 nM): 79%
Compound: O=C(Nc1ccc(OCCCN2CCOCC2)cc1)NC1CCCCC1 [Compound 45, 1-Cyclohexyl-3-[4-(3-morpholin-4-yl-propoxy)-phenyl]-urea]

% Inh ([1]; inhibitor conc. 50 nM): 93%
Compound: O=C(CC12CC3CC(CC(C3)C1)C2)Nc1ccc(OCCCN2CCOCC2)cc1 [Compound 46, 2-Adamantan-1-yl-N-[4-(3-morpholin-4-yl-propoxy)-phenyl]-acetamide]

% Inh ([1]; inhibitor conc. 50 nM): 99%
Compound: O=C(Nc1cccc(OCCCN2CCOCC2)c1)NC12CC3CC(CC(C3)C1)C2 [Compound 47, 1-Adamantan-1-yl-3-[3-(3-morpholin-4-yl-propoxy)-phenyl]-urea]

% Inh ([1]; inhibitor conc. 50 nM): 94%
Compound: O=C(NC1CCCC(OCCCN2CCOCC2)C1)NC12CC3CC(CC(C3)C1)C2 (stereo not shown) [Compound 48, 1-Adamantan-1-yl-3-[3-(3-morpholin-4-yl-propoxy)-cyclohexyl]-urea]

% Inh ([1]; inhibitor conc. 50 nM): 79%
Compound: O=C(CC12CC3CC(CC(C3)C1)C2)NC1CCCC(OCCCN2CCOCC2)C1 (stereo not shown) [Compound 49, 2-Adamantan-1-yl-N-[3-(3-morpholin-4-yl-propoxy)-cyclohexyl]-acetamide]

% Inh ([1]; inhibitor conc. 500 nM): 85%
Compound: O=C(CC12CC3CC(CC(C3)C1)C2)NC1CCC(OCCCN2CCOCC2)CC1 (stereo not shown) [Compound 50, 2-Adamantan-1-yl-N-[4-(3-morpholin-4-yl-propoxy)-cyclohexyl]-acetamide]

% Inh ([1]; inhibitor conc. 50 nM): 61%
Compound: O=C(CC1CCCCC1)Nc1cccc(OCCCN2CCOCC2)c1 [Compound 51, 2-Cyclohexyl-N-[3-(3-morpholin-4-yl-propoxy)-phenyl]-acetamide]

% Inh ([1]; inhibitor conc. 500 nM): 93%
Compound: O=C(CC12CC3CC(CC(C3)C1)C2)Nc1ccc(F)c(OCCCN2CCOCC2)c1 [Compound 52, 2-Adamantan-1-yl-N-[4-fluoro-3-(3-morpholin-4-yl-propoxy)-phenyl]-acetamide]

% Inh ([1]; inhibitor conc. 50 nM): 92%
Compound: O=C(Nc1ccc(F)c(OCCCN2CCOCC2)c1)NC12CC3CC(CC(C3)C1)C2 [Compound 53, 1-Adamantan-1-yl-3-[4-fluoro-3-(3-morpholin-4-yl-propoxy)-phenyl]-urea]

% Inh ([1]; inhibitor conc. 50 nM): 83%
Compound: O=C(Nc1ccc(F)c(OCCCN2CCOCC2)c1)NC1CCCCC1 [Compound 54, 1-Cyclohexyl-3-[4-fluoro-3-(3-morpholin-4-yl-propoxy)-phenyl]-urea]

% Inh ([1]; inhibitor conc. 5000 nM): 90%
Compound: O=C(Nc1cccc(OCCCN2CCOCC2)c1)C12CC3CC(CC(C3)C1)C2 [Compound 55, Adamantane-1-carboxylicacid [3-(3-morpholin-4-yl-propoxy)-phenyl]-amide]

% Inh ([1]; inhibitor conc. 5000 nM): 94%
Compound: O=C(Nc1cccc(OCCCN2CCOCC2)c1)C1CCCCC1 [Compound 56, Cyclohexanecarboxylicacid [3-(3-morpholin-4-yl-propoxy)-phenyl]-amide]

% Inh ([1]; inhibitor conc. 50 nM): 98%
melting point: 232 to 235 °C
Compound: O=C(Nc1cccc(OCc2ccccc2)c1)NC12CC3CC(CC(C3)C1)C2 [Compound 57, 1-Adamantan-1-yl-3-(3-benzyloxy-phenyl)-urea]

% Inh ([1]; inhibitor conc. 500 nM): 81%
Compound: O=C(CNC12CC3CC(CC(C3)C1)C2)Nc1cccc(OCCCN2CCOCC2)c1 [Compound 58, 2-(Adamantan-1-ylamino)-N-[3-(3-morpholin-4-yl-propoxy)-phenyl]-acetamide]

% Inh ([1]; inhibitor conc. 5000 nM): 99%
melting point: 185 to 187 °C
Compound: O=C(Nc1ccc(Oc2cccc(C(=O)O)c2)cc1)NC12CC3CC(CC(C3)C1)C2 [Compound 59, 3-(4-(3-Adamantan-1-ylureido)phenoxy)benzoic acid]

% Inh ([1]; inhibitor conc. 500 nM): 92%
Compound: O=C(Nc1ccc(Oc2cccc(C(=O)O)c2)cc1)Nc1ccc(C(F)(F)F)cc1 [Compound 60, 3-(4-(3-(4-(trifluoromethyl)phenyl)ureido)phenoxy)benzoic acid]

% Inh ([1]; inhibitor conc. 500 nM): 96%
Compound: S=C(Nc1cccc(OCCCN2CCOCC2)c1)NC12CC3CC(CC(C3)C1)C2 [Compound 61]

Compound: O=C(Nc1ccc(Oc2ccc(C(=O)O)cc2)cc1)Nc1ccc(OC(F)(F)F)cc1 [Compound 64, 4-(4-(3-(4-(trifluoromethoxy)phenyl)ureido)phenoxy)benzoic acid]
% Inh ([1]; inhibitor conc. 2000 nM): 100%

% Inh ([1]; inhibitor conc. 2000 nM): 100%
melting point: 162 to 166 °C
Compound: O=C(Nc1ccc(Oc2ccc(C(=O)O)cc2)cc1)NC12CC3CC(CC(C3)C1)C2 [Compound 65, 4-(4-(3-(adamantyl)ureido)phenoxy)benzoic acid]

% Inh ([1]; inhibitor conc. 2000 nM): 100%
melting point: > 400 °C
Compound: O=C(Nc1ccc(Oc2ccc(C(=O)O)cc2)cc1)Nc1ccc(C(F)(F)F)cc1 [Compound 66, 4-(4-(3-(4-(trifluoromethyl)phenyl)ureido)phenoxy)benzoic acid]

% Inh ([1]; inhibitor conc. 2000 nM): 99%
melting point: 318 °C
Compound: O=C(Nc1ccc(Oc2ccc(C(=O)O)cc2)cc1)Nc1cccc(C(F)(F)F)c1 [Compound 67, 4-(4-(3-(3-(trifluoromethyl)phenyl)ureido)phenoxy)benzoic acid]

melting point: 152 to 154 °C
Compound: O=C(Nc1cccc(Oc2ccc(C(=O)O)cc2)c1)NC12CC3CC(CC(C3)C1)C2 [Compound 68]

% Inh ([1]; inhibitor conc. 2000 nM): 100%
Compound: O=C(Nc1ccc(C(F)(F)F)cc1)Nc1cccc(Oc2ccc(C(=O)O)cc2)c1 [Compound 69, 4-(3-(3-(4-(trifluoromethyl)phenyl)ureido)phenoxy)benzoicacid]

% Inh ([1]; inhibitor conc. 2000 nM): 95%
Compound: O=C(Nc1cccc(Oc2cccc(C(=O)O)c2)c1)NC12CC3CC(CC(C3)C1)C2 [Compound 70, 3-(3-(3-(adamantyl)ureido)phenoxy)benzoicacid]

% Inh ([1]; inhibitor conc. 2000 nM): 98%
Compound: O=C(Nc1ccc(C(F)(F)F)cc1)Nc1cccc(Oc2cccc(C(=O)O)c2)c1 [Compound 71, 3-(3-(3-(4-(trifluoromethyl)phenyl)ureido)phenoxy)benzoicacid]

% Inh ([1]; inhibitor conc. 200 nM): 89%
Compound: O=C(NCCc1ccc(OCc2ccccc2)cc1)NCCC12CC3CC(CC(C3)C1)C2 [Compound 72, 1-(4-(benzyloxy)phenethyl)-3-(adamantylethyl)urea]

% Inh ([1]; inhibitor conc. 200 nM): 97%
Compound: O=C(NCCc1ccc(OCc2ccccc2)cc1)NCC12CC3CC(CC(C3)C1)C2 [Compound 73, 1-(4-(benzyloxy)phenethyl)-3-(adamantylmethyl)urea]

% Inh ([1]; inhibitor conc. 2000 nM): 100%
Compound: O=C(Nc1ccc(OC(F)(F)F)cc1)N[C@H]1CC[C@H](Oc2ccc(C(=O)O)cc2)CC1 [Compound 74, 4-((1r,4r)-4-(3-(4-(trifluoromethoxy)phenyl)ureido)cyclohexyloxy)benzoic acid]

% Inh ([1]; inhibitor conc. 2000 nM): 95%
Compound: O=C(Nc1ccc(C(F)(F)F)cc1)N[C@H]1CC[C@H](Oc2ccc(C(=O)O)cc2)CC1 [Compound 75]
